Among the test systems are MDA-N; XF 498 CNS; BT-549 breast; SF-539 CNS; M14 melanoma; M19-MEL melanoma; OVCAR-3 ovarian; DMS 114 small cell lung; OVCAR-5 ovarian; KM12 colon; LXFL 529 NSCLC.
Holding throughout (assay): inhibition of tumour cell growth, NCI panel, 48 h

Seven molecules from PubChem BioAssay (NCI) can be followed below.

Each structure is given as a SMILES string.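 Five compound concentrations were applied to cells in 96-well plates for 48 hours; endpoints were derived by simple linear interpolation of the resulting dose-response curve. The concentration for full growth arrest is given as TGI.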

For `CC(C)/C=C1\CCC(CN(C)C)C1=O` (stereo not given), the TGI with MDA-N was found to be 7.78 µM; in the assay with XF 498 CNS it was 4.17 µM; in the assay with BT-549 breast, 7.83 µM; in the assay on SF-539 CNS, 19.8 µM; in the assay with M14 melanoma, 5.52 µM; in the assay with M19-MEL melanoma it was 33.7 µM. The TGI was 7.97 µM in the assay with OVCAR-3 ovarian; 10.3 µM in the assay on DMS 114 small cell lung; 15.3 µM in the assay on OVCAR-5 ovarian; 4.65 µM in the assay with KM12 colon; 2.85 µM in the assay with LXFL 529 NSCLC.

With `CCCCCCCC/C=C1\CCC(CN(C)C)C1=O` (stereo not given), the TGI in the assay with XF 498 CNS amounted to 12.8 µM; in the assay with SF-539 CNS it was 9.32 µM; in the assay on M14 melanoma, 12 µM; in the assay with M19-MEL melanoma, 10.5 µM; with OVCAR-3 ovarian it was 22 µM; in the assay on DMS 114 small cell lung, 13.6 µM. Besides, the TGI worked out at 35.5 µM in the assay with OVCAR-5 ovarian, 7.09 µM in the assay on KM12 colon and 3.01 µM with LXFL 529 NSCLC.

For `CCOc1ccccc1N=Nc1ccc2oc(=O)c(C(C)=O)cc2c1`, the TGI with XF 498 CNS, with SF-539 CNS, in the assay with M14 melanoma, in the assay on M19-MEL melanoma, in the assay with OVCAR-3 ovarian and in the assay on DMS 114 small cell lung was over 100 µM throughout. Moreover, the TGI with OVCAR-5 ovarian, with KM12 colon and in the assay with LXFL 529 NSCLC was over 100 µM each time.

Take `Nc1nncc2c1c(Br)cn2C1OC(CO)C(O)C1O` (stereo not given): the TGI is over 100 µM with XF 498 CNS; over 100 µM in the assay with SF-539 CNS; over 100 µM in the assay on M14 melanoma; over 100 µM in the assay on M19-MEL melanoma; over 100 µM in the assay on OVCAR-3 ovarian; 62.6 µM in the assay with DMS 114 small cell lung. Further, the TGI with OVCAR-5 ovarian, in the assay on KM12 colon and in the assay on LXFL 529 NSCLC was over 100 µM each time.

As to `Nc1nc2c(N)cc(C(F)(F)F)cc2nc1-c1ccccc1`, the TGI in the assay with XF 498 CNS, in the assay with SF-539 CNS, in the assay on M14 melanoma, in the assay on M19-MEL melanoma, with OVCAR-3 ovarian and with DMS 114 small cell lung was over 100 µM throughout. The TGI with OVCAR-5 ovarian, with KM12 colon and in the assay on LXFL 529 NSCLC was over 100 µM throughout.

Turning to `COc1ccc(N2C(=O)c3c(c4[nH]c5ccccc5c4c4ccc(C(C)(C)C)cc34)C2=O)cc1`, the TGI was 49.8 µM in the assay with XF 498 CNS; over 100 µM in the assay on SF-539 CNS; over 100 µM in the assay with M14 melanoma; over 100 µM with M19-MEL melanoma; 53.6 µM in the assay on OVCAR-3 ovarian; over 100 µM in the assay on DMS 114 small cell lung. In addition, the TGI in the assay with OVCAR-5 ovarian, in the assay on KM12 colon and in the assay on LXFL 529 NSCLC was over 100 µM throughout.

`CC1=C(c2nc3ccccc3s2)C(=O)OC1(C)C`: the TGI in the assay with XF 498 CNS, in the assay with SF-539 CNS, in the assay on M14 melanoma, in the assay on M19-MEL melanoma, in the assay on OVCAR-3 ovarian and in the assay on DMS 114 small cell lung was over 100 µM each time. Further, the TGI in the assay with OVCAR-5 ovarian, in the assay on KM12 colon and with LXFL 529 NSCLC was over 100 µM each time.
